Consider 44 molecules from article PMC12040169 (PLOS Biology, 2025).

Where “and” joins values, the source holds several entries; their conditions need not be identical. Identical values can stand only once.

Data set [1] concerns HeLa. The settings on record: bulk resorufin, single well, 28.5 h, 10 µM, Bulk resorufin fluorescence.
Data set [2] is described as follows: in vitro. The settings on record: human, hela cells, % viability.

In the case of `CNC1=NC2CCCCC2O1` (stereo not shown) [CBK023075F], the % viability in data set [1] is 111%. The viability (in general, a read-out of living cells in per cent, often relative to untreated cells) at 28.5 h, 10 µM in data set [2] was found to be 117%.

As to `CCOC(=O)c1c(NS(=O)(=O)c2ccc(NC(C)=O)cc2)sc2c1CCCC2` [CBK004658], the % viability in data set [1] was found to be 99.8%. Further, the viability at 28.5 h, 10 µM in data set [2] came to 90.3%.

As for `O=C(C1CC1)N1CCC[C@H](Cn2nc(-c3cccs3)ccc2=O)C1` [CBK284314], the % viability in data set [1] came to 91.8%. The viability at 28.5 h, 10 µM in data set [2] is 74.7%.

Consider `CC(C)(C)OC(=O)N1CCC[C@@H](CNC(=O)c2cccs2)C1` [CBK284332], for which the % viability in data set [1] was 90.2%. Further, in data set [2], the viability at 28.5 h, 10 µM turned out to be 104%.

In the case of `O=C1[C@@H]2CCCN2C(=O)c2ccccc2N1Cc1ccc(F)cc1` [CBK282856], in data set [1], the % viability came out at 99.5%. Further, the viability at 28.5 h, 10 µM in data set [2] was found to be 117%.

Consider `O=C1[C@@H]2CCCN2C(=O)c2ccccc2N1Cc1ccccc1F` [CBK282855], for which the % viability in data set [1] stood at 106%. Also, the viability at 28.5 h, 10 µM in data set [2] was found to be 93.9%.

Regarding `C[C@H](Cn1nc2c(cc1=O)CCCCC2)NC(=O)c1cccs1` [CBK284545], the % viability in data set [1] worked out at 85.9%. Further, in data set [2], the viability at 28.5 h, 10 µM was 101%.

On to `CCN(CC)CCNC(=O)/C(=N\O)c1ccccn1` [CBK264538], for which the % viability in data set [1] was 93.9%. The viability at 28.5 h, 10 µM in data set [2] is 90.6%.

With `Cc1cc(CN2CC3CCCN3C[C@H]2C)oc1C` (stereo partly shown) [CBK285449], the % viability in data set [1] is 103%. Moreover, in data set [2], the viability at 28.5 h, 10 µM was determined as 96.9%.

In the case of `CC(=O)n1cc(C2C(=O)NN=C2C)c2ccccc21` (stereo not shown) [CBK083563], the % viability in data set [1] was found to be 82.3%. For the same molecule, in data set [2], the viability at 28.5 h, 10 µM worked out at 102%.

As to `COc1ccc([C@@]23CC[C@@H](CNS(=O)(=O)c4cccc(Cl)c4)C[C@@H]2N(C)CC3)cc1OC` [CBK042202T], the % viability in data set [1] was 91.5%. The viability at 28.5 h, 10 µM in data set [2] stood at 99.8%.

For `S=C(Nc1ccc(C2=NCCO2)cc1)Nc1ccc(Cl)c(Cl)c1` [CBK022344], in data set [1], the % viability came out at 106%. The viability at 28.5 h, 10 µM in data set [2] worked out at 90.6%.

Take `CC(C)n1cc(CN2CC3C[C@@H](O)CN3C[C@H]2C)c2ccccc21` (stereo partly shown) [CBK285437]: in data set [1], the % viability was 88.8%. The viability at 28.5 h, 10 µM in data set [2] came out at 107%.

For the molecule `CN1CCc2[nH]c(=S)c(C#N)c(-c3ccccc3)c2C1` [CBK288354], in data set [1], the % viability stood at 87.1%. Besides, the viability at 28.5 h, 10 µM in data set [2] came to 96.5%.

Take `O=C(O)CCS(=O)(=O)c1nc(-c2ccccc2)cc(C(F)(F)F)n1` [CBK268832]: the % viability in data set [1] came out at 102%. The viability at 28.5 h, 10 µM in data set [2] was 104%.

Turning to `O=C(NCCc1ccccc1)[C@@H]1C=CCN1C(=O)C1CC1` [CBK284315], the % viability in data set [1] came out at 81.8%. The viability at 28.5 h, 10 µM in data set [2] came to 93.6%.

For `O=C(Cn1c([C@H]2CCCO2)cc2cccnc21)NC1CCCC1` [CBK285219], in data set [1], the % viability stood at 85.4%. Moreover, the viability at 28.5 h, 10 µM in data set [2] amounted to 88.8%.

On to `CC[C@@H](Cn1nc(-c2cccs2)ccc1=O)NC(=O)c1ccco1` [CBK282308], for which the % viability in data set [1] was determined as 87.3%. Besides, the viability at 28.5 h, 10 µM in data set [2] turned out to be 94.7%.

For the molecule `C[C@@H]1CN2CCCC2CN1Cc1ccc(F)c(F)c1` (stereo partly shown) [CBK285445], the % viability in data set [1] worked out at 105%. For the same molecule, the viability at 28.5 h, 10 µM in data set [2] came out at 99.5%.

On to `C[C@@H]1CN2C[C@H](O)CC2CN1Cc1cccc(C(F)(F)F)c1` (stereo partly shown) [CBK285413], for which the % viability in data set [1] was 88.1%. Moreover, the viability at 28.5 h, 10 µM in data set [2] is 91.7%.

For the molecule `Cc1nn(C)c(N2CCNCC2)c1NC(=O)c1ccoc1` [CBK050302T], in data set [1], the % viability turned out to be 108%. Moreover, the viability at 28.5 h, 10 µM in data set [2] is 99.7%.

On to `CCn1cc(CN2C[C@@H]3CCCN3C[C@H]2CCSC)c(C)n1` [CBK285460], for which the % viability in data set [1] was 99.1%. The viability at 28.5 h, 10 µM in data set [2] was found to be 96.3%.

Regarding `O=C(O)c1cc(S(=O)(=O)NCc2ccco2)c(Cl)cc1N1CCCCC1` [CBK263409], the % viability in data set [1] worked out at 92.5%. Also, the viability at 28.5 h, 10 µM in data set [2] was 108%.

Regarding `CC(C)c1ccc(CN2CCC(Cc3ccccc3)CC2)cc1` [CBK126378], the % viability in data set [1] came out at 109%. In addition, the viability at 28.5 h, 10 µM in data set [2] worked out at 99.1%.

With `O=C(O)CCNc1c(C(=O)O)cnc2ccccc12` [CBK261139], in data set [1], the % viability is 89%. The viability at 28.5 h, 10 µM in data set [2] worked out at 83.3%.

Consider `C[C@H]1CN2C[C@H](O)CC2CN1Cc1cc(Br)cs1` (stereo partly shown) [CBK285044], for which the % viability in data set [1] is 94%. Besides, in data set [2], the viability at 28.5 h, 10 µM was determined as 103%.

For the molecule `O=C(O)c1cc(-c2ccccc2)c2c(=O)[nH][nH]c2n1` [CBK286631], the % viability in data set [1] was 102% and 88.2%. The viability at 28.5 h, 10 µM in data set [2] was 105%.

For the molecule `CC(=O)NC(NS(=O)(=O)c1ccccc1)(C(F)(F)F)C(F)(F)F` [CBK025820], the % viability in data set [1] turned out to be 92.5%. Also, the viability at 28.5 h, 10 µM in data set [2] was 98.4%.

Take `COc1nccc(NC(c2cnn(C)c2)[C@H]2C[C@H](O)C2)c1C#N` (stereo partly shown) [CBK307283]: in data set [1], the % viability was 91.1%. In addition, the viability at 28.5 h, 10 µM in data set [2] came out at 94%.

On to `O=C(CN1C(=O)[C@H]2CCCN2C(=O)c2ccccc21)NC1CCCC1` [CBK282438], for which the % viability in data set [1] was found to be 110%. In data set [2], the viability at 28.5 h, 10 µM came to 112%.

`COc1nccnc1OC1CCNCC1` [CBK073919T]: in data set [1], the % viability was 86.5% and 97.3%. In addition, in data set [2], the viability at 28.5 h, 10 µM was 100%.

With `CC(=O)NC[C@H]1CN(c2ccc(-c3cc4ccccc4n3C(=O)OC(C)(C)C)c(F)c2)C(=O)O1` [CBK011849], the % viability in data set [1] was 82.6%. Besides, the viability at 28.5 h, 10 µM in data set [2] is 98.1%.

As to `Cc1c(S(=O)(=O)NCCN2CCNC2=O)cnn1-c1ccccc1` [CBK062603], the % viability in data set [1] came to 99.3%. The viability at 28.5 h, 10 µM in data set [2] amounted to 117%.

With `CC(C)[C@@H](Cn1c(=O)oc2ccccc21)NC(=O)c1ccco1` [CBK284531], the % viability in data set [1] was 86.1%. In addition, in data set [2], the viability at 28.5 h, 10 µM worked out at 94.1%.

`CCOc1ccc(CCN2C(=O)CN=C2S)cc1OCC` [CBK288528]: the % viability in data set [1] is 98.3%. Besides, the viability at 28.5 h, 10 µM in data set [2] turned out to be 103%.

As for `O=C(CN1C(=O)[C@@H]2CCCN2C(=O)c2ccccc21)N1CCOCC1` [CBK286401], the % viability in data set [1] turned out to be 103%. Further, in data set [2], the viability at 28.5 h, 10 µM was 83.9%.

On to `O=C(Cn1c([C@@H]2CCCO2)cc2cccnc21)N1CCCCCC1` [CBK282285], for which the % viability in data set [1] amounted to 101%. The viability at 28.5 h, 10 µM in data set [2] came out at 88%.

Regarding `CCS(=O)(=O)N1CC=C[C@H]1C(=O)NCCc1ccccc1` [CBK284325], the % viability in data set [1] was determined as 89.7%. The viability at 28.5 h, 10 µM in data set [2] was 107%.

For the molecule `CC1CCCN(Cc2c([C@H]3CCCO3)[nH]c3ncccc23)C1` (stereo partly shown) [CBK282287], the % viability in data set [1] was 106%. For the same molecule, the viability at 28.5 h, 10 µM in data set [2] turned out to be 110%.

As for `Cn1c(=O)c2c(-c3ccccc3)n(-c3ccc(C(=O)O)cc3)cc2n(C)c1=O` [CBK265040], the % viability in data set [1] was determined as 98.4%. Moreover, the viability at 28.5 h, 10 µM in data set [2] stood at 84%.

Consider `COc1cc(-c2ccc(OC3CCNCC3)cc2)cc(OC)c1OC` [CBK093682], for which the % viability in data set [1] was 102%. In addition, the viability at 28.5 h, 10 µM in data set [2] turned out to be 99%.

For `O=C(CC1C(=O)NC(=O)N1Cc1ccccc1)NCc1ccccc1` (stereo not shown) [CBK288083], the % viability in data set [1] turned out to be 94.6%. The viability at 28.5 h, 10 µM in data set [2] worked out at 87.8%.

Regarding `Cc1cc(CN2CC3CCCN3C[C@@H]2C)c(C)n1-c1ccccn1` (stereo partly shown) [CBK285431], in data set [1], the % viability amounted to 98.1%. The viability at 28.5 h, 10 µM in data set [2] was 87%.

Take `O=C(CNS(=O)(=O)c1ccc(Br)cc1)N1CCOCC1` [CBK034469]: in data set [1], the % viability was 87%. Besides, the viability at 28.5 h, 10 µM in data set [2] amounted to 96%.
